Experimental findings from patent US20180118718A1, “Substituted Quinoxaline Derivatives” (Selvita S.A., priority 2015, published 2018) are described below.

This experiment deals with T1, Human recombinant His-tagged PFKFB3 (Homo sapiens, UniProt Q16875).
T1 construct: His; made in house
The experiment can be described thus: PFKFB3 IC50 Determination Assay (in vitro kinase assay, modified ADP-Glo system). Particulars: ATP 20 μM and fructose-6-phosphate 2 μM (Km), 25 nM PFKFB3, 2 h, rt, ADP-Glo luminescence. Format: biochemical. The method in brief:
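In-house His-tagged human PFKFB3 phosphorylates fructose-6-phosphate with ATP and substrate at Km; ADP measured by luminescence with 5x-diluted ADP-Glo reagents. Compounds tested at 10 concentrations, routinely 100 μM to 1 nM, in duplicate, 6.7% final DMSO. Data normalized to no-substrate control, expressed as % positive control; IC50 by four-parameter fit.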
Background: ADP-Glo first removes unused ATP, then detects ADP through luciferase.

Each structure is given as a SMILES string. pIC50: −log10 of the molar value.

T1 sequence (Q16875 whole entry): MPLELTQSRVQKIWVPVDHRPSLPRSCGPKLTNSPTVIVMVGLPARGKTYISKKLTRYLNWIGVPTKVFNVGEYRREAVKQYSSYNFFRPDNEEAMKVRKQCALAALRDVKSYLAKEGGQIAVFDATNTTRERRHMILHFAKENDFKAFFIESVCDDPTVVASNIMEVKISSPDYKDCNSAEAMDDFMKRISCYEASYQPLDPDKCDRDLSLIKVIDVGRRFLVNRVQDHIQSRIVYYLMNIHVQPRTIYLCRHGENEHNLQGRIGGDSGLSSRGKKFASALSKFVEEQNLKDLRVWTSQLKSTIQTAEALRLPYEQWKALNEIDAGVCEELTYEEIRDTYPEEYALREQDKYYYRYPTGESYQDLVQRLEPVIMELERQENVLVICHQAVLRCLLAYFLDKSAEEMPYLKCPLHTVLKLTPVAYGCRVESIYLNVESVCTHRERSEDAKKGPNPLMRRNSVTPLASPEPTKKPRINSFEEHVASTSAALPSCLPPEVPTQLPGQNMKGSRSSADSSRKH

As for `Cn1ccc2ccc(-c3cc(Nc4cnccc4C(=O)Oc4ccnc(N)n4)cc4nccnc34)cc21` [Example 160, 2-Aminopyrimidin-4-yl3-{[8-(1-methyl-1H-indol-6-yl)quinoxalin-6-yl]amino}pyridine-4-carboxylate], the pIC50 (as a rule, the IC50 on a negative log10 scale, so that one unit is a factor of ten) is 6.00 to 9.00.

On to `CS(=O)(=O)c1ccncc1Nc1cc(-c2ccc3sncc3c2)c2nccnc2c1` [Example 161, 8-(1,2-Benzothiazol-5-yl)-N-(4-methanesulfonylpyridin-3-yl)quinoxalin-6-amine], for which the pIC50 was 5.00 to 6.00.

As to `CS(=O)(=O)c1ccncc1Nc1cc(-c2ccc(NC(=O)C3CCCN3)cc2)c2nccnc2c1` (stereo not drawn) [Example 164, N-(4-{7-[(4-methanesulfonylpyridin-3-yl)amino]quinoxalin-5-yl}phenyl)pyrrolidine-2-carboxamide], the pIC50 is 4.00 to 5.00.

For the molecule `CS(=O)(=O)c1ccncc1Nc1cc(-c2cccc(NC(=O)C3CCCN3)c2)c2nccnc2c1` (stereo not drawn) [Example 165, N-(3-{7-[(4-Methanesulfonylpyridin-3-yl)amino]quinoxalin-5-yl}phenyl)pyrrolidine-2-carboxamide], the pIC50 was 4.00 to 5.00.

Regarding `Cn1nnc2cc(-c3cc(Nc4cnccc4S(C)(=O)=O)cc4nccnc34)ccc21` [Example 167, N-(4-methanesulfonylpyridin-3-yl)-8-(1-methyl-1H-1,2,3-benzotriazol-5-yl)quinoxalin-6-amine], the pIC50 was 4.00 to 5.00.

Take `Cc1nc2cc(-c3cc(Nc4cnccc4S(C)(=O)=O)cc4nccnc34)ccc2s1` [Example 169, N-(4-methanesulfonylpyridin-3-yl)-8-(2-methyl-1,3-benzothiazol-5-yl)quinoxalin-6-amine]: the pIC50 is 4.00 to 5.00.

As to `Cn1nnc2ccc(-c3cc(Nc4cnccc4S(C)(=O)=O)cc4nccnc34)cc21` [Example 170, N-(4-Methanesulfonylpyridin-3-yl)-8-(1-methyl-1H-1,2,3-benzotriazol-6-yl)quinoxalin-6-amine], the negative-log IC50 (pIC50) was 4.00 to 5.00.

With `CS(=O)(=O)c1ccncc1Nc1cc(-c2ccc3nc(N)sc3c2)c2nccnc2c1` [Example 174, 8-(2-Amino-1,3-benzothiazol-6-yl)-N-(4-methanesulfonylpyridin-3-yl)quinoxalin-6-amine], the pIC50 is 6.00 to 9.00.

Turning to `CN(C)Cc1ccncc1Nc1cc(-c2ccc3ccn(C)c3c2)c2nccnc2c1` [Example 175, N-{4-[(dimethylamino)methyl]pyridin-3-yl}-8-(1-methyl-1H-indol-6-yl)quinoxalin-6-amine], the pIC50 is 6.00 to 9.00.

Turning to `CN(C)Cc1ccccc1Nc1cc(-c2ccc3ccn(C)c3c2)c2nccnc2c1` [Example 176, N-{2-[(Dimethylamino)methyl]phenyl}-8-(1-methyl-1H-indol-6-yl)quinoxalin-6-amine], the pIC50 was 6.00 to 9.00.

`Cn1ccc2ccc(-c3cc(Nc4ccccc4C(=O)O)cc4nccnc34)cc21` [Example 178, 2-{[8-(1-Methyl-1H-indol-6-yl)quinoxalin-6-yl]amino}benzoic acid]: the pIC50 was 6.00 to 9.00.

Turning to `Cn1ccc2ccc(-c3cc(Nc4cnccc4C(=O)O)cc4nccnc34)cc21` [Example 179, 3-{[8-(1-Methyl-1H-indol-6-yl)quinoxalin-6-yl]amino}pyridine-4-carboxylic acid], the pIC50 was 6.00 to 9.00.

With `CN1CCC(NC(=O)c2ccccc2Nc2cc(-c3ccc4ccn(C)c4c3)c3nccnc3c2)C1` (stereo not drawn) [Example 183, 2-{[8-(1-Methyl-1H-indol-6-yl)quinoxalin-6-yl]amino}-N-(1-methylpyrrolidin-3-yl)benzamide], the pIC50 was 6.00 to 9.00.

On to `CS(=O)(=O)c1ccncc1Nc1cc(-c2ccc(N)c(F)c2)c2nccnc2c1` [Example 186, 8-(4-Amino-3-fluorophenyl)-N-(4-methanesulfonylpyridin-3-yl)quinoxalin-6-amine], for which the pIC50 was 6.00 to 9.00.

`CS(=O)(=O)c1ccncc1Nc1cc(-c2ccc(F)cc2)c2nccnc2c1` [Example 188, 8-(4-Fluorophenyl)-N-(4-methanesulfonylpyridin-3-yl)quinoxalin-6-amine]: the pIC50 was 6.00 to 9.00.

`CS(=O)(=O)c1ccccc1Nc1cc(-c2ccc3sc(N)nc3c2)c2nccnc2c1` [Example 190, 8-(2-Amino-1,3-benzothiazol-5-yl)-N-(2-methanesulfonylphenyl)quinoxalin-6-amine]: the pIC50 was 6.00 to 9.00.

In the case of `Cc1csc2ccc(-c3cc(Nc4ccccc4S(C)(=O)=O)cc4nccnc34)cc12` [Example 191, N-(2-Methanesulfonylphenyl)-8-(3-methyl-1-benzothiophen-5-yl)quinoxalin-6-amine], the pIC50 was 6.00 to 9.00.

Take `CCc1cc(CC)cc(-c2cc(Nc3cnccc3S(C)(=O)=O)cc3nccnc23)c1` [Example 192, 8-(3,5-Diethylphenyl)-N-(4-methanesulfonylpyridin-3-yl)quinoxalin-6-amine]: the pIC50 was 5.00 to 6.00.

Consider `Cc1cc2ccn(C)c2cc1-c1cc(Nc2cnccc2S(C)(=O)=O)cc2nccnc12` [Example 195, 8-(1,5-Dimethyl-1H-indol-6-yl)-N-(4-methanesulfonylpyridin-3-yl)quinoxalin-6-amine], for which the pIC50 was 6.00 to 9.00.

On to `Cn1ccc2ccc(-c3cc(Oc4cnccc4C(=O)O)cc4nccnc34)cc21` [Example 198, 3-{[8-(1-methyl-1H-indol-6-yl)quinoxalin-6-yl]oxy}pyridine-4-carboxylic acid], for which the pIC50 was 4.00 to 5.00.

In the case of `Cc1csc2ccc(-c3cc(Nc4ccccc4S(=O)(=O)NC4CCN(C)C4)cc4nccnc34)cc12` (stereo not drawn) [Example 199, 2-{[8-(3-Methyl-1-benzothiophen-5-yl)quinoxalin-6-yl]amino}-N-(1-methylpyrrolidin-3-yl)benzene-1-sulfonamide], the pIC50 is 6.00 to 9.00.

Take `CC(=O)Nc1cc2cc(-c3cc(Nc4cnccc4S(C)(=O)=O)cc4nccnc34)ccc2s1` [Example 200, N-(5-{7-[(4-Methanesulfonylpyridin-3-yl)amino]quinoxalin-5-yl}-1-benzothiophen-2-yl)acetamide]: the pIC50 was 5.00 to 6.00.

Consider `CN(C)c1nc2cc(-c3cc(Nc4cnccc4S(C)(=O)=O)cc4nccnc34)ccc2s1` [Example 201, 8-[2-(Dimethylamino)-1,3-benzothiazol-5-yl]-N-(4-methanesulfonylpyridin-3-yl)quinoxalin-6-amine], for which the pIC50 is 4.00 to 5.00.

`CNc1nc2cc(-c3cc(Nc4cnccc4S(C)(=O)=O)cc4nccnc34)ccc2s1` [Example 202, N-(4-Methanesulfonylpyridin-3-yl)-8-[2-(methylamino)-1,3-benzothiazol-5-yl]quinoxalin-6-amine]: the pIC50 was 5.00 to 6.00.

Regarding `Cn1ccc2ccc(-c3cc(Nc4ncncc4Br)cc4nccnc34)cc21` [Example 204, N-(5-Bromopyrimidin-4-yl)-8-(1-methyl-1H-indol-6-yl)quinoxalin-6-amine], the pIC50 is 4.00 to 5.00.

With `Cc1csc2ccc(-c3cc(Nc4cnccc4C(N)=O)cc4nccnc34)cc12` [Example 205, 3-{[8-(3-Methyl-1-benzothiophen-5-yl)quinoxalin-6-yl]amino}pyridine-4-carboxamide], the pIC50 is 6.00 to 9.00.

With `CC(=O)N1CC(NC(=O)c2ccncc2Nc2cc(-c3ccc4scc(C)c4c3)c3nccnc3c2)C1` [Example 206, N-(1-Acetylazetidin-3-yl)-3-{[8-(3-methyl-1-benzothiophen-5-yl)quinoxalin-6-yl]amino}pyridine-4-carboxamide], the pIC50 was 6.00 to 9.00.

Take `Cn1ccc2ccc(-c3cc(Nc4cnccc4C(=O)Nc4cccnc4)cc4nccnc34)cc21` [Example 207, 3-{[8-(1-Methyl-1H-indol-6-yl)quinoxalin-6-yl]amino}-N-(pyridin-3-yl)pyridine-4-carboxamide]: the pIC50 is 6.00 to 9.00.

As for `Cn1ccc2ccc(-c3cc(Nc4ccccc4S(=O)(=O)NC4CCCOC4)cc4nccnc34)cc21` (stereo not drawn) [Example 209, 2-{[8-(1-Methyl-1H-indol-6-yl)quinoxalin-6-yl]amino}-N-(oxan-3-yl)benzene-1-sulfonamide], the pIC50 was 6.00 to 9.00.

As for `CS(=O)(=O)c1ccncc1Nc1cc(-c2ccc(Br)c(F)c2)c2nccnc2c1` [Example 211, 8-(4-Bromo-3-fluorophenyl)-N-(4-methanesulfonylpyridin-3-yl)quinoxalin-6-amine], the negative logarithm of the IC50 (pIC50) was 6.00 to 9.00.

As for `Cc1cc(Br)ccc1-c1cc(Nc2cnccc2S(C)(=O)=O)cc2nccnc12` [Example 212, 8-(4-Bromo-2-methylphenyl)-N-(4-methanesulfonylpyridin-3-yl)quinoxalin-6-amine], the pIC50 is 6.00 to 9.00.

With `CS(=O)(=O)c1ccncc1Nc1cc(-c2ccc(S(F)(F)(F)(F)F)cc2)c2nccnc2c1` [Example 213, N-(4-Methanesulfonylpyridin-3-yl)-8-[4-(pentafluoro-λ^6-sulfanyl)phenyl]quinoxalin-6-amine], the pIC50 was 4.00 to 5.00.

On to `CN1CCC(NC(=O)c2ccncc2Nc2cc(-c3ccc(Br)cc3)c3nccnc3c2)C1` (stereo not drawn) [Example 215, 3-{[8-(4-Bromophenyl)quinoxalin-6-yl]amino}-N-(1-methylpyrrolidin-3-yl)pyridine-4-carboxamide], for which the pIC50 is 6.00 to 9.00.
